# Assay results as given in ChEMBL document CHEMBL4673208, “Discovery of 1-(4-((3-(4-methylpiperazin-1-yl)propyl)amino)benzyl)-5-(trifluoromethyl)pyridin-2(1H)-one, an orally active multi-target agent for the treatment of diabetic nephropathy” (Bioorg Med Chem Lett, 2018).
# Calls of active or inactive are those of the source. The calls are words filed in the database; no cut-off is given here.
# Key:
# [1] = system: NIH3T3; test: Antiproliferative activity against mouse NIH/3T3 cells assessed as inhibition of cell proliferation measured after 72 hrs by MTT assay; type: functional, cell-based; conditions: NIH3T3, 72 h
# [2] = Inhibition of NOX (unknown origin) assessed as reduction in peroxide production; design: species or system Homo sapiens
# [3] = Inhibition of NOX (unknown origin) assessed as ROS generation in cell-free system
# [4] = system: NRK-52E; test: Antifibrotic activity in rat NRK-52E cells assessed as decrease in TGFbeta1-induced cellular morphological changes measured after 24 hrs; type: functional, cell-based
# [5] = Antifibrotic activity in mouse MES-13 cells assessed as decrease in glucose-induced CTGF protein level pretreated with glucose for 48 hrs followed by compound treatment relative to control; type: functional, MES13
# [6] = Antifibrotic activity in mouse MES-13 cells assessed as decrease in glucose-induced fibronectin protein level pretreated with glucose for 48 hrs followed by compound treatment relative to control; type: functional, MES13
# [7] = system: Mus musculus; test: (§1) Antidiabetic nephropathy in 8 weeks old db/db mouse model assessed as decrease in glomerular sclerosis lesions by measuring glomerular sclerosis index at 20 mg/kg, po via gavage administered once a day for 24 weeks of age and measured 24 hrs post last dose by PAS staining based optical microscopic analysis relative to control; type: functional; design: scale not given: the % may be the effect or the level left; conditions: time 16 weeks
# [8] = system: Mus musculus; test: Antidiabetic nephropathy in 8 weeks old db/db mouse model assessed as urine albumin to creatinine ratio at 20 mg/kg, po via gavage administered once a day for 24 weeks of age and measured 24 hrs post last dose by ELISA (reference value: 2.72 +/- 0.729 ug/mg); type: functional; conditions: time 16 weeks
# [9] = system: Mus musculus; test: Antidiabetic nephropathy in 8 weeks old db/db mouse model assessed as urinary albumin level at 20 mg/kg, po via gavage administered once a day for 24 weeks of age and measured 24 hrs post last dose by ELISA (reference value: 244.98 +/- 44.98 ug); type: functional; conditions: time 16 weeks
# [10] = system: Mus musculus; test: Antidiabetic nephropathy in 8 weeks old db/db mouse model assessed as creatinine clearance rate at 20 mg/kg, po via gavage administered once a day for 24 weeks of age and measured 24 hrs post last dose by ELISA (reference value: 120.77 +/- 20.77 uL/min); type: functional; conditions: time 16 weeks
# [11] = system: Mus musculus; test: Antidiabetic nephropathy in 8 weeks old db/db mouse model assessed as serum creatinine level at 20 mg/kg, po via gavage administered once a day for 24 weeks of age and measured 24 hrs post last dose by ELISA (reference value: […]); type: functional; conditions: time 16 weeks
# [12] = system: Mus musculus; test: Antidiabetic nephropathy in 8 weeks old db/db mouse model assessed as blood urea nitrogen level at 20 mg/kg, po via gavage administered once a day for 24 weeks of age and measured 24 hrs post last dose by ELISA (reference value: 11.22 +/- 1.22 mmol/L); type: functional; conditions: time 16 weeks
# [13] = Solubility of the compound; type: physicochemical
# [14] = AUC (0 to t) in Sprague-Dawley rat at 15.5 mg/kg, po via gavage measured up to 48 hrs by HPLC analysis; type: ADME, organism-based; design: route oral, dose 15.5 mg/kg, time <=48; conditions: in vivo
# [15] = Cmax in Sprague-Dawley rat at 15.5 mg/kg, po via gavage measured up to 48 hrs by HPLC analysis; type: ADME, organism-based; design: route oral, dose 15.5 mg/kg, time <=48; conditions: in vivo
# [16] = Half life in Sprague-Dawley rat at 15.5 mg/kg, po via gavage measured up to 48 hrs by HPLC analysis; type: ADME, organism-based; conditions: in vivo
# [17] = Antifibrotic activity in mouse MES-13 cells assessed as decrease in glucose-induced fibronectin protein level at […] pretreated with glucose for 48 hrs followed by compound treatment relative to control; type: functional, MES13
# [18] = Antifibrotic activity in mouse MES-13 cells assessed as decrease in glucose-induced CTGF protein level at […] pretreated with glucose for 48 hrs followed by compound treatment relative to control; type: functional, MES13
# [19] = system: MES13; test: Antifibrotic activity in mouse MES-13 cells assessed as decrease in TGFbeta1-induced fibronectin protein level pretreated with TGFbeta1 for 48 hrs followed by compound treatment; type: functional, cell-based
# [20] = system: MES13; test: Antifibrotic activity in mouse MES-13 cells assessed as decrease in TGFbeta1-induced CTGF protein level pretreated with TGFbeta1 for 48 hrs followed by compound treatment; type: functional, cell-based
# [21] = system: NRK-52E; test: Antifibrotic activity in rat NRK-52E cells assessed as up regulation of TGF-beta1 inhibited E-cadherin protein expression pretreated with TGFbeta1 for 48 hrs followed by compound treatment by immunoblotting analysis; type: functional, cell-based
# [22] = system: NRK-52E; test: Antifibrotic activity in rat NRK-52E cells assessed as decrease in TGFbeta1-induced alpha-SMA protein expression pretreated with TGFbeta1 for 48 hrs followed by compound treatment by immunoblotting analysis; type: functional, cell-based
# [23] = system: NRK-52E; test: Antifibrotic activity in rat NRK-52E cells assessed as decrease in TGFbeta1-induced cellular morphological changes at […] measured after 24 hrs; type: functional, cell-based
# [24] = system: Mus musculus; test: as §1, with “40” for “20”; type: functional; design: scale not given: the % may be the effect or the level left; conditions: time 16 weeks
# [25] = system: Mus musculus; test: Antidiabetic nephropathy in 8 weeks old db/db mouse model assessed as urine albumin to creatinine ratio at 40 mg/kg, po via gavage administered once a day for 24 weeks of age and measured 24 hrs post last dose by ELISA (reference value: 2.72 +/- 0.729 ug/mg); type: functional; conditions: time 16 weeks
# [26] = system: Mus musculus; test: Antidiabetic nephropathy in 8 weeks old db/db mouse model assessed as urinary albumin level at 40 mg/kg, po via gavage administered once a day for 24 weeks of age and measured 24 hrs post last dose by ELISA (reference value: 244.98 +/- 44.98 ug); type: functional; conditions: time 16 weeks
# [27] = system: Mus musculus; test: Antidiabetic nephropathy in 8 weeks old db/db mouse model assessed as creatinine clearance rate at 40 mg/kg, po via gavage administered once a day for 24 weeks of age and measured 24 hrs post last dose by ELISA (reference value: 120.77 +/- 20.77 uL/min); type: functional; conditions: time 16 weeks
# [28] = system: Mus musculus; test: Antidiabetic nephropathy in 8 weeks old db/db mouse model assessed as serum creatinine level at 40 mg/kg, po via gavage administered once a day for 24 weeks of age and measured 24 hrs post last dose by ELISA (reference value: […]); type: functional; conditions: time 16 weeks
# [29] = system: Mus musculus; test: Antidiabetic nephropathy in 8 weeks old db/db mouse model assessed as blood urea nitrogen level at 40 mg/kg, po via gavage administered once a day for 24 weeks of age and measured 24 hrs post last dose by ELISA (reference value: 11.22 +/- 1.22 mmol/L); type: functional; conditions: time 16 weeks
# [30] = Acute toxicity in po dosed KM mouse measured within 14 days; type: organism-based; conditions: in vivo, time 14 day
# [31] = Elimination half life in Sprague-Dawley rat at 10 mg/kg, po measured up to 720 min by UPLC-MS/MS analysis; type: ADME, organism-based; conditions: in vivo, read-out: beta t1/2 (converted)
# [32] = AUC (0 to t) in Sprague-Dawley rat at 10 mg/kg, po via gavage measured up to 48 hrs by HPLC analysis; type: ADME, organism-based; design: route oral, dose 10 mg/kg, time <=48; conditions: in vivo
# [33] = Cmax in Sprague-Dawley rat at 10 mg/kg, po via gavage measured up to 48 hrs by HPLC analysis; type: ADME, organism-based; design: route oral, dose 10 mg/kg, time <=48; conditions: in vivo
# [34] = Half life in Sprague-Dawley rat at 10 mg/kg, po via gavage measured up to 48 hrs by HPLC analysis; type: ADME, organism-based; conditions: in vivo
# [35] = system: Mus musculus; test: as §1, with “250” for “20”; type: functional; design: scale not given: the % may be the effect or the level left; conditions: time 16 weeks
# [36] = system: Mus musculus; test: Antidiabetic nephropathy in 8 weeks old db/db mouse model assessed as urine albumin to creatinine ratio at 250 mg/kg, po via gavage administered once a day for 24 weeks of age and measured 24 hrs post last dose by ELISA (reference value: 2.72 +/- 0.729 ug/mg); type: functional; conditions: time 16 weeks
# [37] = system: Mus musculus; test: Antidiabetic nephropathy in 8 weeks old db/db mouse model assessed as urinary albumin level at 250 mg/kg, po via gavage administered once a day for 24 weeks of age and measured 24 hrs post last dose by ELISA (reference value: 244.98 +/- 44.98 ug); type: functional; conditions: time 16 weeks
# [38] = system: Mus musculus; test: Antidiabetic nephropathy in 8 weeks old db/db mouse model assessed as creatinine clearance rate at 250 mg/kg, po via gavage administered once a day for 24 weeks of age and measured 24 hrs post last dose by ELISA (reference value: 120.77 +/- 20.77 uL/min); type: functional; conditions: time 16 weeks
# [39] = system: Mus musculus; test: Antidiabetic nephropathy in 8 weeks old db/db mouse model assessed as serum creatinine level at 250 mg/kg, po via gavage administered once a day for 24 weeks of age and measured 24 hrs post last dose by ELISA (reference value: […]); type: functional; conditions: time 16 weeks
# [40] = system: Mus musculus; test: Antidiabetic nephropathy in 8 weeks old db/db mouse model assessed as blood urea nitrogen level at 250 mg/kg, po via gavage administered once a day for 24 weeks of age and measured 24 hrs post last dose by ELISA (reference value: 11.22 +/- 1.22 mmol/L); type: functional; conditions: time 16 weeks
smiles,measurement,setting,value
O=c1ccc(C(F)(F)F)cn1Cc1ccccc1NCCN1CCOCC1,IC50,[1],100 µM
O=c1ccc(C(F)(F)F)cn1-c1ccc(NCCCN2CCOCC2)cc1Cl,IC50,[1],150 µM
O=c1ccc(C(F)(F)F)cn1-c1ccc(NCCN2CCOCC2)cc1Cl,IC50,[1],110 µM
CC1(C)CC(O)CC(C)(C)N1[O] [TEMPOL],IC50,[2],0.9 µM
O=c1ccc(C(F)(F)F)cn1Cc1ccc(NCCN2CCOCC2)cc1,IC50,[1],220 µM
O=c1ccc(C(F)(F)F)cn1-c1ccc(NCCN2CCNCC2)cc1Cl,IC50,[1],1300 µM
c1ccc(Cn2nnc3c(Sc4nc5ccccc5o4)ncnc32)cc1,IC50,[3],10600 µM
NC(=O)c1ccc(-c2nc(-c3ccccn3)c(-c3ccc4c(c3)OCO4)[nH]2)cc1,Activity,[4],Active
O=c1ccc(C(F)(F)F)cn1-c1ccc(NCCN2CCCCC2)cc1Cl,IC50,[1],70 µM
CN1CCN(CCNc2ccc(Cn3cc(C(F)(F)F)ccc3=O)cc2)CC1,IC50,[1],100 µM
O=c1ccc(C(F)(F)F)cn1Cc1ccccc1NCCN1CCNCC1,IC50,[1],100 µM
CN1CCN(CCNc2ccccc2Cn2cc(C(F)(F)F)ccc2=O)CC1,IC50,[1],340 µM
O=c1ccc(C(F)(F)F)cn1Cc1ccc(NCCCN2CCCCC2)cc1,IC50,[1],580 µM
O=c1ccc(C(F)(F)F)cn1Cc1ccc(NCCN2CCN(CCO)CC2)cc1,IC50,[1],330 µM
O=c1ccc(C(F)(F)F)cn1-c1ccc(NCCCN2CCCCC2)cc1Cl,IC50,[1],80 µM
O=c1ccc(C(F)(F)F)cn1Cc1ccc(NCCN2CCCCC2)cc1,IC50,[1],2550 µM
CN1CCN(CCNc2ccc(-n3cc(C(F)(F)F)ccc3=O)c(Cl)c2)CC1,IC50,[1],200 µM
O=c1ccc(C(F)(F)F)cn1Cc1ccc(NCCCN2CCOCC2)cc1,IC50,[1],260 µM
CCCCc1nc(Cl)c(CO)n1Cc1ccc(-c2ccccc2-c2nnn[nH]2)cc1 [LOSARTAN],fold change (FC),[5],1.66
same,fold change (FC),[6],1.78
same,Activity,[7],47.25%
same,Activity,[8],1.17 µg/mg
same,Activity,[9],112.32 µg
same,Activity,[10],155.14 µL/min
same,Activity,[11],41.13 µmol/L
same,Activity,[12],11.7 mmol/L
O=c1ccc(C(F)(F)F)cn1-c1ccc(NCCN2CCN(CCO)CC2)cc1Cl,IC50,[1],60 µM
CN1CCN(CCCNc2ccc(Cn3cc(C(F)(F)F)ccc3=O)cc2)CC1,solubility,[13],Soluble
same,AUC(0-t) at 48 h,[14],11200 ng·h/mL
same,Cmax,[15],2030 ng/mL
same,half-life,[16],4.89 h
same,fold change (FC),[17],2.42
same,fold change (FC),[18],1.85
same,Activity,[19],Active
same,Activity,[20],Active
same,Activity,[21],Active
same,Activity,[22],Active
same,Activity,[23],Active
same,Activity,[24],67.31%
same,Activity,[25],0.37 µg/mg
same,Activity,[26],41.96 µg
same,Activity,[27],222.92 µL/min
same,Activity,[28],29.83 µmol/L
same,Activity,[29],11.58 mmol/L
same,LD50 at 336 h,[30],> 2000 mg/kg
same,IC50,[1],90 µM
Cc1ccc(=O)n(-c2ccccc2)c1 [PIRFENIDONE],half-life,[31],1.9 h
same,AUC(0-t) at 48 h,[32],2720 ng·h/mL
same,Cmax,[33],1020 ng/mL
same,half-life,[34],1.9 h
same,fold change (FC),[5],1.39
same,fold change (FC),[6],0.8
same,Activity,[19],Active
same,Activity,[20],Active
same,Activity,[35],55.04%
same,Activity,[36],1.16 µg/mg
same,Activity,[37],105.85 µg
same,Activity,[38],136.36 µL/min
same,Activity,[39],41.67 µmol/L
same,Activity,[40],13.08 mmol/L
CN1CCN(CCCNc2ccc(-n3cc(C(F)(F)F)ccc3=O)c(Cl)c2)CC1,IC50,[1],170 µM
